Experimental data published in US10477864B2, “Microbiocidal quinoline (thio)carboxamide derivatives” (priority 2016, dated 2019).

How the values were obtained:
[1] = system: Fusarium culmorum; experiment: microbe, parasite or virus in culture; format: cell-based; conditions: read-out: control of Fusarium culmorum
[2] = system: Glomerella lagenarium (Colletotrichum lagenarium); experiment: Glomerella lagenarium (Colletotrichum lagenarium) / liquid culture (anthracnose); format: cell-based; conditions: Colletotrichum orbiculare; read-out: control of Glomerella lagenarium
[3] = system: Fusarium culmorum; experiment: whole plant or invertebrate; format: in vivo; conditions: in Triticum aestivum, read-out: control of Fusarium culmorum
[4] = system: Botryotinia fuckeliana (Botrytis cinerea); experiment: Botryotinia fuckeliana (Botrytis cinerea) / liquid culture (gray mould); format: cell-based; conditions: 72 h, read-out: control of Botryotinia fuckeliana
[5] = system: Monographella nivalis (Microdochium nivale); experiment: Monographella nivalis (Microdochium nivale) / liquid culture (foot rot cereals); format: cell-based; conditions: 96 h, read-out: control of Monographella nivalis

Molecule CCC(Cc1ccccc1)(CC(F)(F)F)NC(=O)c1cnc2c(F)cccc2c1 (stereo not drawn) [Compound E-101, N-(1-benzyl-1-ethyl-3,3,3-trifluoro-propyl)-8-fluoro-quinoline-3-carboxamide] has a melting point of 127 to 129 °C, an inhibition of growth at 200 ppm [1] of no less than 80% and an inhibition of growth at 200 ppm [2] of no less than 80%. The pest or weed control at 200 ppm [3] was no less than 80% and the inhibition of growth at 200 ppm [4] was no less than 80%.
With Cc1nc2c(C#N)cccc2cc1C(=O)NC(C)(Cc1ccccc1)CC(F)(F)F (stereo not drawn) [Compound E-113, N-(1-benzyl-3,3,3-trifluoro-1-methyl-propyl)-8-cyano-2-methyl-quinoline-3-carboxamide] the melting point was 136 to 140 °C, the inhibition of growth at 200 ppm [1] was no less than 80% and the inhibition of growth at 200 ppm [2] was no less than 80%. The pest or weed control at 200 ppm [3] was no less than 80% and the inhibition of growth at 200 ppm [4] was no less than 80%.
For CC(Cc1ccccc1)(CC(F)(F)F)NC(=O)c1cnc2c(Cl)c(F)ccc2c1 (stereo not drawn) [Compound E-93, N-(1-benzyl-3,3,3-trifluoro-1-methyl-propyl)-8-chloro-7-fluoro-quinoline-3-carboxamide], the melting point was 150 to 152 °C, the inhibition of growth at 200 ppm [1] was no less than 80% and the inhibition of growth at 200 ppm [2] was no less than 80%. It also gave a pest or weed control at 200 ppm [3] of no less than 80% and an inhibition of growth at 200 ppm [4] of no less than 80%.
For Cc1cccc2ncc(C(=O)NC(C)(Cc3ccccc3)CC(F)(F)F)cc12 (stereo not drawn) [Compound E-86, N-(1-benzyl-3,3,3-trifluoro-1-methyl-propyl)-5-methyl-quinoline-3-carboxamide], the melting point was 101 to 103 °C, the inhibition of growth at 200 ppm [1] was no less than 80% and the inhibition of growth at 200 ppm [2] was no less than 80%. The pest or weed control at 200 ppm [3] was no less than 80% and the inhibition of growth at 200 ppm [4] was no less than 80%.
In the case of C[C@](Cc1ccccc1)(CC(F)F)NC(=O)c1cnc2c(F)cccc2c1 [Compound F-32, N-[(1S)-1-benzyl-3,3-difluoro-1-methyl-propyl]-8-fluoro-quinoline-3-carboxamide], the inhibition of growth at 200 ppm [5] is reported as no less than 80%, the inhibition of growth at 200 ppm [1] is reported as no less than 80% and the inhibition of growth at 200 ppm [2] is reported as no less than 80%. For the same molecule, the pest or weed control at 200 ppm [3] was no less than 80% and the inhibition of growth at 200 ppm [4] was no less than 80%.
For C/C=C/C(C)(Cc1ccccc1)NC(=O)c1cnc2ccccc2c1 (stereo not drawn) [Compound E-88, N-[(E)-1-benzyl-1-methyl-but-2-enyl]quinoline-3-carboxamide], the inhibition of growth at 200 ppm [5] was no less than 80%, the inhibition of growth at 200 ppm [1] was no less than 80% and the pest or weed control at 200 ppm [3] was no less than 80%. The inhibition of growth at 200 ppm [4] was no less than 80%.
CON=CC(C)(Cc1ccccc1)NC(=O)c1cnc2c(F)cccc2c1 (stereo not drawn) [Compound E-117, N-(1-benzyl-2-methoxyimino-1-methyl-ethyl)-8-fluoro-quinoline-3-carboxamide] gave an inhibition of growth at 200 ppm [5] of no less than 80%, an inhibition of growth at 200 ppm [1] of no less than 80% and an inhibition of growth at 200 ppm [4] of no less than 80%.
Molecule CCOC(OCC)C(C)(Cc1ccccc1)NC(=O)c1cnc2c(F)cccc2c1 (stereo not drawn) [Compound E-116, N-(1-benzyl-2,2-diethoxy-1-methyl-ethyl)-8-fluoro-quinoline-3-carboxamide] has an inhibition of growth at 200 ppm [5] of no less than 80%, an inhibition of growth at 200 ppm [1] of no less than 80% and an inhibition of growth at 200 ppm [4] of no less than 80%.
CC(C)CC(C)(Cc1ccccc1)NC(=O)c1cc2cccc(F)c2nc1Cl (stereo not drawn) [Compound E-106, N-(1-benzyl-1,3-dimethyl-butyl)-2-chloro-8-fluoro-quinoline-3-carboxamide] gave a melting point of 106 to 108 °C, an inhibition of growth at 200 ppm [1] of no less than 80% and an inhibition of growth at 200 ppm [2] of no less than 80%. For the same molecule, the pest or weed control at 200 ppm [3] was no less than 80% and the inhibition of growth at 200 ppm [4] was no less than 80%.
With Cc1c(C(=O)NC(C)(Cc2ccccc2)CC(C)C)cnc2c(Cl)cccc12 (stereo not drawn) [Compound E-107, N-(1-benzyl-1,3-dimethyl-butyl)-8-chloro-4-methyl-quinoline-3-carboxamide] the melting point was 65 to 70 °C, the inhibition of growth at 200 ppm [1] was no less than 80% and the pest or weed control at 200 ppm [3] was no less than 80%. For the same molecule, the inhibition of growth at 200 ppm [4] was no less than 80%.
In the case of C=C(C)C[C@](C)(Cc1ccccc1)NC(=O)c1cnc2c(F)c(F)ccc2c1 [Compound F-20, N-[(1R)-1-benzyl-1,3-dimethyl-but-3-enyl]-7,8-difluoro-quinoline-3-carboxamide], the inhibition of growth at 200 ppm [5] is reported as no less than 80%, the inhibition of growth at 200 ppm [1] is reported as no less than 80% and the inhibition of growth at 200 ppm [2] is reported as no less than 80%. It also gave a pest or weed control at 200 ppm [3] of no less than 80% and an inhibition of growth at 200 ppm [4] of no less than 80%.
In the case of Cc1c(C(=O)N[C@](C)(Cc2ccccc2)CC(F)(F)F)cnc2c(F)cccc12 [Compound F-30, N-[(1R)-1-benzyl-3,3,3-trifluoro-1-methyl-propyl]-8-fluoro-4-methyl-quinoline-3-carboxamide], the inhibition of growth at 200 ppm [5] is reported as no less than 80%, the inhibition of growth at 200 ppm [1] is reported as no less than 80% and the inhibition of growth at 200 ppm [2] is reported as no less than 80%. The inhibition of growth at 200 ppm [4] was no less than 80%.
For CC(Cc1ccccc1)(CC(F)(F)F)NC(=O)c1cnc2cc(C#N)ccc2c1 (stereo not drawn) [Compound E-70, N-(1-benzyl-3,3,3-trifluoro-1-methyl-propyl)-7-cyano-quinoline-3-carboxamide], the melting point was 172 to 174 °C, the inhibition of growth at 200 ppm [1] was no less than 80% and the pest or weed control at 200 ppm [3] was no less than 80%. For the same molecule, the inhibition of growth at 200 ppm [4] was no less than 80%.
For CC(Cc1ccccc1)(CC(F)(F)Cl)NC(=O)c1cnc2c(F)cccc2c1 (stereo not drawn) [Compound E-97, N-(1-benzyl-3-chloro-3,3-difluoro-1-methyl-propyl)-8-fluoro-quinoline-3-carboxamide], the inhibition of growth at 200 ppm [5] was no less than 80%, the inhibition of growth at 200 ppm [1] was no less than 80% and the inhibition of growth at 200 ppm [2] was no less than 80%. The pest or weed control at 200 ppm [3] was no less than 80% and the inhibition of growth at 200 ppm [4] was no less than 80%.
Work on Cc1c(C(=O)NC(C)(Cc2ccccc2)CC(F)(F)F)cnc2c(F)cccc12 (stereo not drawn) [Compound E-90, N-(1-benzyl-3,3,3-trifluoro-1-methyl-propyl)-8-fluoro-4-methyl-quinoline-3-carboxamide] yielded a melting point of 154 to 158 °C, an inhibition of growth at 200 ppm [1] of no less than 80% and an inhibition of growth at 200 ppm [2] of no less than 80%. It also gave a pest or weed control at 200 ppm [3] of no less than 80% and an inhibition of growth at 200 ppm [4] of no less than 80%.
Molecule CC(Cc1ccccc1F)(CC(F)(F)F)NC(=O)c1cnc2c(F)cccc2c1 (stereo not drawn) [Compound E-98, 8-fluoro-N-[3,3,3-trifluoro-1-[(2-fluorophenyl)methyl]-1-methyl-propyl]quinoline-3-carboxamide] has a melting point of 131 to 133 °C, an inhibition of growth at 200 ppm [1] of no less than 80% and an inhibition of growth at 200 ppm [2] of no less than 80%. For the same molecule, the pest or weed control at 200 ppm [3] was no less than 80% and the inhibition of growth at 200 ppm [4] was no less than 80%.
Cc1c(F)ccc2cc(C(=O)NC(C)(Cc3ccccc3)CC(F)(F)F)cnc12 (stereo not drawn) [Compound E-100, N-(1-benzyl-3,3,3-trifluoro-1-methyl-propyl)-7-fluoro-8-methyl-quinoline-3-carboxamide] showed a melting point of 127 to 129 °C, an inhibition of growth at 200 ppm [1] of no less than 80% and an inhibition of growth at 200 ppm [2] of no less than 80%. The pest or weed control at 200 ppm [3] was no less than 80% and the inhibition of growth at 200 ppm [4] was no less than 80%.
CC(C)CC(C)(Cc1ccccc1)NC(=O)c1cnc2cc(C#N)ccc2c1 (stereo not drawn) [Compound E-67, N-(1-benzyl-1,3-dimethyl-butyl)-7-cyano-quinoline-3-carboxamide] showed a melting point of 170 to 172 °C, an inhibition of growth at 200 ppm [1] of no less than 80% and a pest or weed control at 200 ppm [3] of no less than 80%. The inhibition of growth at 200 ppm [4] was no less than 80%.
Molecule Cc1c(C(=O)NC(C)(Cc2ccccc2)CC(F)(F)F)cnc2c(Cl)cccc12 (stereo not drawn) [Compound E-104, N-(1-benzyl-3,3,3-trifluoro-1-methyl-propyl)-8-chloro-4-methyl-quinoline-3-carboxamide] has a melting point of 184 to 186 °C, an inhibition of growth at 200 ppm [1] of no less than 80% and an inhibition of growth at 200 ppm [2] of no less than 80%. It also gave a pest or weed control at 200 ppm [3] of no less than 80% and an inhibition of growth at 200 ppm [4] of no less than 80%.
CC(C)CC(C)(Cc1ccccc1)NC(=O)c1cnc2cccc(O)c2c1 (stereo not drawn) [Compound E-87, N-(1-benzyl-1,3-dimethyl-butyl)-5-hydroxy-quinoline-3-carboxamide] showed a melting point of 90 to 95 °C, an inhibition of growth at 200 ppm [1] of no less than 80% and an inhibition of growth at 200 ppm [2] of no less than 80%. For the same molecule, the inhibition of growth at 200 ppm [4] was no less than 80%.
For CC(C=C(F)F)(Cc1ccccc1)NC(=O)c1cnc2c(F)cccc2c1 (stereo not drawn) [Compound E-94, N-(1-benzyl-3,3-difluoro-1-methyl-allyl)-8-fluoro-quinoline-3-carboxamide], the melting point was 99 to 101 °C, the inhibition of growth at 200 ppm [1] was no less than 80% and the inhibition of growth at 200 ppm [2] was no less than 80%. For the same molecule, the pest or weed control at 200 ppm [3] was no less than 80% and the inhibition of growth at 200 ppm [4] was no less than 80%.
Molecule CC(Cc1ccccc1)(CC(F)(F)F)NC(=S)c1cnc2c(F)cccc2c1 (stereo not drawn) [Compound E-115, N-(1-benzyl-3,3,3-trifluoro-1-methyl-propyl)-8-fluoro-quinoline-3-carbothioamide] has a melting point of 173 to 175 °C, an inhibition of growth at 200 ppm [1] of no less than 80% and an inhibition of growth at 200 ppm [2] of no less than 80%. It also gave an inhibition of growth at 200 ppm [4] of no less than 80%.
Work on Cc1cccc2ncc(C(=O)NC(C)(Cc3ccccc3)CC(C)C)cc12 (stereo not drawn) [Compound E-85, N-(1-benzyl-1,3-dimethyl-butyl)-5-methyl-quinoline-3-carboxamide] yielded a melting point of 79 to 81 °C, an inhibition of growth at 200 ppm [1] of no less than 80% and a pest or weed control at 200 ppm [3] of no less than 80%. For the same molecule, the inhibition of growth at 200 ppm [4] was no less than 80%.
With CC(Cc1ccccc1)(CC(F)(F)F)NC(=O)c1cnc2c(F)c(F)ccc2c1 (stereo not drawn) [Compound E-102, N-(1-benzyl-3,3,3-trifluoro-1-methyl-propyl)-7,8-difluoro-quinoline-3-carboxamide] the melting point was 158 to 160 °C, the inhibition of growth at 200 ppm [1] was no less than 80% and the inhibition of growth at 200 ppm [2] was no less than 80%. It also gave a pest or weed control at 200 ppm [3] of no less than 80% and an inhibition of growth at 200 ppm [4] of no less than 80%.
COCCC(C)(Cc1ccccc1)NC(=O)c1cnc2c(F)cccc2c1 (stereo not drawn) [Compound E-121, N-(1-benzyl-3-methoxy-1-methyl-propyl)-8-fluoro-quinoline-3-carboxamide] gave an inhibition of growth at 200 ppm [5] of no less than 80%, an inhibition of growth at 200 ppm [1] of no less than 80% and an inhibition of growth at 200 ppm [4] of no less than 80%.
For Cc1c(C(=O)NC(C)(Cc2ccccc2)CC(F)(F)F)cnc2c(C#N)cccc12 (stereo not drawn) [Compound E-105, N-(1-benzyl-3,3,3-trifluoro-1-methyl-propyl)-8-cyano-4-methyl-quinoline-3-carboxamide], the melting point was 194 to 197 °C, the inhibition of growth at 200 ppm [1] was no less than 80% and the pest or weed control at 200 ppm [3] was no less than 80%.
